Laboratory results from patent publication US11612661B2 (priority 2019, dated 2023).
Bridge positions count the residues as written; N and C are the ends. Square brackets hold non-standard residues; d marks the D form. Triazole bridges read from a SMILES are 1,4-linked. Peptide text beside a SMILES is read from it. Tyr(3-I) = N[C@@H](Cc1ccc(O)c(I)c1)C(=O)O; Orn(N3) = [N-]=[N+]=NCCC[C@H](N)C(=O)O; NMeR = CN[C@@H](CCCNC(=N)N)C(=O)O; Cit = NC(=O)NCCC[C@H](N)C(=O)O; Pra = C#CC[C@H](N)C(=O)O

Experiments:
[1] = biological target: rat α9α10 nAChR (Rattus norvegicus, UniProt P43144+Q9JLB5); assay: cell-based; assay type: cell-based; details: α9α10 nAChR IC50 (nM) Rat
[2] = biological target: human α9α10 nAChR (Homo sapiens, UniProt Q9GZZ6+Q9UGM1); assay: cell-based; assay type: cell-based
[3] = biological target: α7 nAChR (Homo sapiens, UniProt P36544); details: 10 μM; read-out: Partial inhibition of the α7 nAChR
[4] = test system: chronic constriction injury (CCI) model; set-up: species or system Sprague Dawley rats; details: rat, in vivo
[5] = test system: 88 receptors, transporters, enzymes and kinases; details: 10 μM

Chain of human α9α10 nAChR (Q9UGM1 26-479 limits assumed): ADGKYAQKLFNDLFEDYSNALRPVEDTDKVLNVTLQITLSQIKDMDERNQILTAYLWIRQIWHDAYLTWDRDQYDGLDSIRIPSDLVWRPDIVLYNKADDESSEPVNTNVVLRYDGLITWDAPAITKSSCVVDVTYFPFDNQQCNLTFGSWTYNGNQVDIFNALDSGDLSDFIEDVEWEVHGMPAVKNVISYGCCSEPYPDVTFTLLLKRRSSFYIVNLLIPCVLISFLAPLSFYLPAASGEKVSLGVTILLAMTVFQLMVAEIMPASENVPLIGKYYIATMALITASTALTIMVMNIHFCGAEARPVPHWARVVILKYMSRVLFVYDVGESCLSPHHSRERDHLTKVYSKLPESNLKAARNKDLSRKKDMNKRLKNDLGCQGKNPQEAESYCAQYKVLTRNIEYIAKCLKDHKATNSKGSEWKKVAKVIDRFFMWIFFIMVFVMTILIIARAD
Chain of human α9α10 nAChR (Q9GZZ6 25-450 limits assumed): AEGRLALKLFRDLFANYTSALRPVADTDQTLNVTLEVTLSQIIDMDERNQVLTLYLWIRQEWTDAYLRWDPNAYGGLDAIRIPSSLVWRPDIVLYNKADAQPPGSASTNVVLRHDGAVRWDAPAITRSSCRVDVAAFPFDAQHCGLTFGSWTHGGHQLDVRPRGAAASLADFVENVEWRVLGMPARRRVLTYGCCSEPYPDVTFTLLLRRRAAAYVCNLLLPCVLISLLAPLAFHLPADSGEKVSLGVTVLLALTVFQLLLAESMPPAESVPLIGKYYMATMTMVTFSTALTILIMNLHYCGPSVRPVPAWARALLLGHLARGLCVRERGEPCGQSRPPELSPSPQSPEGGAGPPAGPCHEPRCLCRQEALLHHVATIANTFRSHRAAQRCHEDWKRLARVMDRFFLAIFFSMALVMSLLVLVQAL
Chain of rat α9α10 nAChR (P43144 26-479 limits assumed): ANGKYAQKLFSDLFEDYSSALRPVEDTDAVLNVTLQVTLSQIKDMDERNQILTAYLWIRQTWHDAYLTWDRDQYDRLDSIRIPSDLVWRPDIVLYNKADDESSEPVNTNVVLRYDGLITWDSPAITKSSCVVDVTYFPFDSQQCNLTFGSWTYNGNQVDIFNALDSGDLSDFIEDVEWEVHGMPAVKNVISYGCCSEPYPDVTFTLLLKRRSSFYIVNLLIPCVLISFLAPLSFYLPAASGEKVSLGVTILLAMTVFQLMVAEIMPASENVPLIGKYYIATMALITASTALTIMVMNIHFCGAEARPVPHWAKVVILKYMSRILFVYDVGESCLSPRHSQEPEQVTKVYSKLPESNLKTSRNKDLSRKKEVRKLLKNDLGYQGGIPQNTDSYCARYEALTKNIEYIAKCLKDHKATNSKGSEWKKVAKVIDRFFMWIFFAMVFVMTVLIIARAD
Chain of rat α9α10 nAChR (Q9JLB5 25-447 limits assumed): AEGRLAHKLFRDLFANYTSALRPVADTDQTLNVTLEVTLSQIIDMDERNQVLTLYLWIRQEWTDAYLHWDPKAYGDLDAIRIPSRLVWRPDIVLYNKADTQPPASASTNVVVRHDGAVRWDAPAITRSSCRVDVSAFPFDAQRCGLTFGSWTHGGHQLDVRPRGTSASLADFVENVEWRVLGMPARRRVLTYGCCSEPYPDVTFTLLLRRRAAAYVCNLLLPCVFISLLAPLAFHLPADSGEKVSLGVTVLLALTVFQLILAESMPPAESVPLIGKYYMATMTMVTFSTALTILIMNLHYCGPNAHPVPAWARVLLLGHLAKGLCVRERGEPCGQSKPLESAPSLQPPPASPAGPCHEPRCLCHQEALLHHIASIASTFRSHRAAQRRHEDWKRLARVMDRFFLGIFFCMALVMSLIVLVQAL
Chain of α7 nAChR (P36544 23-502 limits assumed): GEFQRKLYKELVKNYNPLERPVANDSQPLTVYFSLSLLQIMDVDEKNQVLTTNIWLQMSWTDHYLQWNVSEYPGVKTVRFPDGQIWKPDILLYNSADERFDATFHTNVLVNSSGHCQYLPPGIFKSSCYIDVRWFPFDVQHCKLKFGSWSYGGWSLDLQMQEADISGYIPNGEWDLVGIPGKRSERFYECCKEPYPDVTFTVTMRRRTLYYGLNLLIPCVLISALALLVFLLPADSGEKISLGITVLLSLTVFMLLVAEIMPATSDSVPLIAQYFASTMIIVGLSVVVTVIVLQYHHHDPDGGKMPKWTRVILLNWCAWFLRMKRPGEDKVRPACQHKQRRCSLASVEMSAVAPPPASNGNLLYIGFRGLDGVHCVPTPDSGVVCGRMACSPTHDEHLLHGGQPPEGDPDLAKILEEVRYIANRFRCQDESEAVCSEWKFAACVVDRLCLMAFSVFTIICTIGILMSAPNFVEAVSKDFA

SMILES	IC50 [1] [nM]	IC50 [2] [nM]	inhibition at 10 µM [3] [%]	Paw withdrawal thresholds relative to vehicle-treated control animals [4]	Off-target effects in panel of 88 receptors, transporters, enzymes and kinases [5]
C[C@@H](O)[C@@H]1NC(=O)[C@@H]2Cc3cn(nn3)CCC[C@@H](C(=O)N[C@@H](Cc3ccc(O)cc3)C(N)=O)NC(=O)[C@H](CCC(N)=O)NC(=O)[C@H](Cc3ccc(O)c(I)c3)NC(=O)[C@H](CCCNC(N)=O)NC(=O)[C@H](CSSC[C@H](NC(=O)CN)C(=O)N2)NC(=O)[C@H](CCCNC(=N)N)NC(=O)[C@@H]2CCCN2C(=O)[C@H](CC(=O)O)NC1=O [Ib′, L-tyrosinamide, glycyl-L-cysteinyl-L-alanyl-L-threonyl-L-α-aspartyl-L-prolyl-L-arginyl-L-cysteinyl-N5-(aminocarbonyl)-L-ornithyl-L-3-iodotyrosyl-L-glutaminyl-L-norvalyl-cyclic (2→8)-disulfide-cyclic 3^3,12^5-(1H-1,2,3-triazole-4,1-diyl)] (H-GC[Pra]TDPRC[Cit][Tyr(3-I)]Q[Orn(N3)]Y-NH2; disulfide 2-8; triazole 3-12)	2.3 ± 0.5	48 ± 9	56	statistically significant improvement in paw withdrawal thresholds	no off-target effects
C[C@@H](O)[C@@H]1NC(=O)[C@@H]2Cc3cn(nn3)CCC[C@@H](C(=O)N(C)[C@@H](CCCNC(=N)N)C(=O)O)NC(=O)[C@H](CCC(N)=O)NC(=O)[C@H](Cc3c[nH]c4ccccc34)NC(=O)[C@H](CCCNC(N)=O)NC(=O)[C@H](CSSC[C@H](NC(=O)CN)C(=O)N2)NC(=O)[C@H](CCCNC(=N)N)NC(=O)[C@@H]2CCCN2C(=O)[C@H](CC(=O)O)NC1=O [Iv, L-arginine, glycyl-L-cysteinyl-L-alanyl-L-threonyl-L-α-aspartyl-L-prolyl-L-arginyl-L-cysteinyl-N5-(aminocarbonyl)-L-ornithyl-L-tryptophyl-L-glutaminyl-L-norvalyl-N-methyl-cyclic (2→8)-disulfide-cyclic 3^3,12^5-(1H-1,2,3-triazole-4,1-diyl)] (H-GC[Pra]TDPRC[Cit]WQ[Orn(N3)][NMeR]-OH; disulfide 2-8; triazole 3-12)	< 30	~100			
C[C@@H](O)[C@@H]1NC(=O)[C@@H]2CCC(=O)NCCCC[C@@H](C(=O)N[C@@H](Cc3ccc(O)cc3)C(N)=O)NC(=O)[C@H](CCC(N)=O)NC(=O)[C@H](Cc3ccc(O)c(I)c3)NC(=O)[C@H](CCCNC(N)=O)NC(=O)[C@H](CSSC[C@H](NC(=O)CN)C(=O)N2)NC(=O)[C@H](CCCNC(=N)N)NC(=O)[C@@H]2CCCN2C(=O)[C@H](CC(=O)O)NC1=O [Iw, L-tyrosinamide, glycyl-L-cysteinyl-L-glutamyl-L-threonyl-L-α-aspartyl-L-prolyl-L-arginyl-L-cysteinyl-N5-(aminocarbonyl)-L-ornithyl-L-3-iodotyrosyl-L-glutaminyl-L-lysyl-cyclic (2→8)-disulfide-cyclic-(3→12)-lactam] (H-GCETDPRC[Cit][Tyr(3-I)]QKY-NH2; disulfide 2-8; lactam 3-12)	36 ± 9	> 300			
C[C@@H](O)[C@@H]1NC(=O)[C@@H]2CCCCNC(=O)CC[C@@H](C(=O)N[C@@H](Cc3ccc(O)cc3)C(N)=O)NC(=O)[C@H](CCC(N)=O)NC(=O)[C@H](Cc3ccc(O)c(I)c3)NC(=O)[C@H](CCCNC(N)=O)NC(=O)[C@H](CSSC[C@H](NC(=O)CN)C(=O)N2)NC(=O)[C@H](CCCNC(=N)N)NC(=O)[C@@H]2CCCN2C(=O)[C@H](CC(=O)O)NC1=O [Ix] (H-GCKTDPRC[Cit][Tyr(3-I)]QEY-NH2; disulfide 2-8; lactam 3-12)	21 ± 1.4	123 ± 22			
